Measurements reported in patent US20240158446A1, “CYCLIC COMPOUND HAVING SELECTIVE INHIBITORY ACTION ON KRAS OVER HRAS AND NRAS” (CHUGAI SEIYAKU KABUSHIKI KAISHA, priority 2021, published 2024).
Like-named read-outs stand apart in the source and are kept apart here. Where a SMILES comes first, the peptide text is derived from it. Bridges are numbered along the chain shown (N, C = ends). [ ]: non-standard residue; d: D form. The star is where a group is joined. hPhe(3-Cl-4-CF3) = N[C@@H](CCc1ccc(C(F)(F)F)c(Cl)c1)C(=O)O; NPrPhe(4-CF3) = CCCN[C@@H](Cc1ccc(C(F)(F)F)cc1)C(=O)O; NMeGly(cPent) = CN[C@H](C(=O)O)C1CCCC1; Pro(4,4-F2) = O=C(O)[C@@H]1CC(F)(F)CN1; NMeL = CN[C@@H](CC(C)C)C(=O)O; Morpholide = C1CN(*)CCO1; NMeA = CN[C@@H](C)C(=O)O; Ac5c = NC1(C(=O)O)CCCC1; Aze = O=C(O)[C@@H]1CCN1; Sar = CNCC(=O)O

Key:
[1] = target: GDP-bound KRAS wild-type protein (Homo sapiens, UniProt P01116); test: Binding to KRAS by surface plasmon resonance (SPR), Single Cycle Kinetics; conditions: GDP-bound KRAS wild-type protein, read-out: KRAS KD
GDP-bound KRAS wild-type protein, sequence (P01116 whole entry): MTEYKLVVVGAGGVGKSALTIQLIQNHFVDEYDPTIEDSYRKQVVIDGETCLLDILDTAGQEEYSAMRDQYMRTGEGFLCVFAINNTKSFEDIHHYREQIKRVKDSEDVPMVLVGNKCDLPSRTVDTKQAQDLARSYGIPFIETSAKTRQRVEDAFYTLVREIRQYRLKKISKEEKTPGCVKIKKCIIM

[2] = target: GDP-bound NRAS wild-type protein (Homo sapiens, UniProt P01111); test: Binding to NRAS by surface plasmon resonance (SPR), Single Cycle Kinetics; conditions: SPR, GDP-bound NRAS wild-type protein vs GDP-bound KRAS wild-type protein
GDP-bound NRAS wild-type protein, sequence (P01111 whole entry): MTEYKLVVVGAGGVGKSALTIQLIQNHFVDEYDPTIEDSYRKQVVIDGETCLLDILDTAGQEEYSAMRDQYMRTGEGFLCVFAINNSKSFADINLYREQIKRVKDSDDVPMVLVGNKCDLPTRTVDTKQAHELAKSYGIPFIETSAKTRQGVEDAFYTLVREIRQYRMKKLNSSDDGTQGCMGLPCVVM

[3] = target: GDP-bound HRAS wild-type protein (Homo sapiens, UniProt P01112); test: Binding to HRAS by surface plasmon resonance (SPR), Single Cycle Kinetics; conditions: SPR, GDP-bound HRAS wild-type protein vs GDP-bound KRAS wild-type protein
GDP-bound HRAS wild-type protein, sequence (P01112 whole entry): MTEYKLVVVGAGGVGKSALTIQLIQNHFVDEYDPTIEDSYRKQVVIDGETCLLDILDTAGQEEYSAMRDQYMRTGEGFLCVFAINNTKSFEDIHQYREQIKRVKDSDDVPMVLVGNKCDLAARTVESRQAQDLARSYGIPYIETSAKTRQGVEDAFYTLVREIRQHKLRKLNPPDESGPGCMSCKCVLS

[4] = SPR Single Cycle Kinetics, 1:1 binding model

Compound | Kd [1, 4] [nM] | NRAS/KRAS (ratio of KD value with respect to NRAS to KD value with respect to KRAS) [2] | HRAS/KRAS (ratio of KD value with respect to HRAS to KD value with respect to KRAS) [3] | Kd ([1]; SPR, Single Cycle Kinetics) [nM] | NRAS/KRAS (ratio of KD value for NRAS to KD value for KRAS) [2] | HRAS/KRAS (ratio of KD value for HRAS to KD value for KRAS) [3]
CC[C@H](C)[C@@H]1NC(=O)[C@H](CC(C)C)N(C)C(=O)C[C@@H](C(=O)N2CCOCC2)N(CC)C(=O)[C@H](C2CCCC2)N(C)C(=O)C2(CCCC2)NC(=O)[C@@H]2CCCN2C(=O)[C@H](CCc2cc(F)c(C(F)(F)F)c(F)c2)NC(=O)CN(C)C(=O)[C@H](Cc2ccc(C(F)(F)F)cc2)N2CCCCC[C@@H](C2=O)N(C)C(=O)CN(C)C1=O [PP0477] | 11 | A (a compound having 10 or more and less than 20 is denoted as A) | A (a compound having 10 or more and less than 20 is denoted as A) | – | – | –
CCO[C@@H]1C[C@H]2C(=O)NC3(CCC3)C(=O)N(C)[C@@H](C3CCCC3)C(=O)N(C)[C@H](C(=O)N3CCOCC3)CC(=O)N(C)[C@@H](Cc3cccc(Cl)c3)C(=O)N[C@@H]([C@@H](C)CC)C(=O)N(C)CC(=O)N(C)[C@H]3CCCCCN(C3=O)[C@@H](Cc3ccc(C(F)(F)F)cc3)C(=O)N(C)CC(=O)N[C@@H](CCc3cc(F)c(C(F)(F)F)c(F)c3)C(=O)N2C1 [PP0857] | – | – | – | 1.4 | B (a compound having 3 or more and less than 10 is denoted as B) | B (a compound having 3 or more and less than 10 is denoted as B)
CCO[C@@H]1C[C@H]2C(=O)NC3(CCC3)C(=O)N(C)[C@@H](C3CCCC3)C(=O)N(C)[C@H](C(=O)N(C)C)CC(=O)N(C)[C@@H](COC)C(=O)N[C@@H]([C@@H](C)CC)C(=O)N(C)CC(=O)N(C)[C@H]3C/C=C\CCN(C3=O)[C@@H](Cc3ccc(C(F)(F)F)cc3)C(=O)N(C)CC(=O)N[C@@H](CCc3cc(F)c(C(F)(F)F)c(F)c3)C(=O)N2C1 [PP1113, (2S,8S,12R,14S,20S,23S,27S,30S,36S,38Z)-20-cyclopentyl-8-[2-[3,5-difluoro-4-(trifluoromethyl)phenyl]ethyl]-12-ethoxy-27-(methoxymethyl)-N,N,4,19,22,26,32,35-octamethyl-30-[(1S)-1-methylpropyl]-3,6,9,15,18,21,25,28,31,34,42-undecaoxo-2-[[4-(trifluoromethyl)phenyl]methyl]spiro[1,4,7,10,16,19,22,26,29,32,35-undecazatricyclo[34.5.1.0^10,14]dotetracont-38-ene-17,1′-cyclobutane]-23-carboxamide] | – | – | – | 0.031 | A (a compound having 10 or more and less than 20 is denoted as A) | A (a compound having 10 or more and less than 20 is denoted as A)
CCCN1C(=O)[C@@H]2CCN2C(=O)[C@H](C)N(C)C(=O)[C@H]([C@@H](C)CC)NC(=O)[C@H](CC(C)C)N(C)C(=O)C[C@@H](C(=O)N2CCOCC2)NC(=O)[C@H](C2CCCC2)N(C)C(=O)C2(CCCC2)NC(=O)[C@@H]2CC(F)(F)CN2C(=O)[C@H](CCc2ccc(C(F)(F)F)c(Cl)c2)NC(=O)CN(C)C(=O)[C@@H]1Cc1ccc(C(F)(F)F)cc1 [PP0345] ([NMeL]I[NMeA][Aze][NPrPhe(4-CF3)][Sar][hPhe(3-Cl-4-CF3)][Pro(4,4-F2)][Ac5c][NMeGly(cPent)]D-Morpholide; lactam N-11) | 1.3 | – | – | – | C (A compound having a KD ratio of 0.1 or more and less than 3 is denoted as C) | B (a compound having 3 or more and less than 10 is denoted as B)
CCO[C@@H]1C[C@H]2C(=O)NC3(CC(C)(C)C3)C(=O)N(C)[C@@H](C(CC)CC)C(=O)N(C)[C@H](C(=O)N(C)C)CC(=O)N(C)[C@@H](C(C)C)C(=O)N[C@@H]([C@@H](C)CC)C(=O)N(C)CC(=O)N(C)[C@H]3C/C=C\CCN(C3=O)[C@@H](Cc3ccc(C)cc3)C(=O)N(C)CC(=O)N[C@@H](CCc3ccc(Cl)c(Cl)c3)C(=O)N2C1 [PP2122] | – | – | – | 1.4 | AA (a compound having 20 or more is denoted as AA) | A (a compound having 10 or more and less than 20 is denoted as A)
